Series [1] in a line: content of 3-chloro-6-[3,6-dihydro-4-(3-methylphenyl)-1(2H)-pyridinyl]pyridazine in solutions of γ-CD derivatives (procedure of example 4). Format: physicochemical. Here is the method: (§1) Starting from a 5% stock solution of a particular γ-CD derivative in a phosphate buffer of pH 7.4, a dilution series was obtained with concentrations varying of from 0% to 5% with 0.5% steps. 3 ml of these solutions were pipetted into a closed container containing an appropriate amount of progesteron. After 5 days shaking at 25° C., the thus obtained mixture was filtered over a membrane filter (pore diameter: 0.22 μm), and the content of progesteron was determined with high pressure liquid chromatography (using a column of 25 cm length; 5 mm internal diameter; packed with 5 μm ODS-hypersil (RP-18); eluent: acetonitrile/water; U.V. detection). The results of these concentration measurements for a number of the γ-CD derivatives of the present invention and for unsubstituted γ-CD gathered in the following table.
Following the procedures described in example 4 the content of 3-chloro-6-[3,6-dihydro-4-(3-methylphenyl)-1(2H)-pyridinyl]pyridazine was determined in solutions containing various concentrations of γ-CD derivatives. Said pyridazine compound is described in Published Europ. Pat. Appl. No. 0,156,433 as a useful anti-viral agent.

A short description of series [2]: content of progesteron dissolved in solutions of γ-CD derivatives (phosphate buffer pH 7.4, 5 days shaking at 25° C., HPLC). The class given is physicochemical. The note with it: phosphate buffer pH 7.4, 25° C. Here is the method:
as §1

The conditions of series [3]: cited from earlier work.
Setting [4] is: 1% γ-CD or derivative (weight by volume).
The mark [5] stands for this setting: 2.5% γ-CD or derivative (weight by volume).
The mark [6] stands for this setting: 5% γ-CD or derivative (weight by volume).

Data on three compounds can be found in US4870060A, “Derivatives of γ-cylodextrin” (Janssen Pharmaceutica, priority 1988, dated 1989).

In brackets after ≈: the same amount, converted by molar mass.

What is called thermodynamic solubility is solubility found after equilibrating the solid with the medium. For `Cc1cccc(C2=CCN(c3ccc(Cl)nn3)CC2)c1` [3-chloro-6-[3,6-dihydro-4-(3-methylphenyl)-1(2H)-pyridinyl]pyridazine], the thermodynamic solubility at 120 h in series [1] (phosphate buffer ph 7.4, pH 7.4, aqueous buffer, 0% γ-CD derivative (weight by volume)) was determined as 0.4 µg/mL (≈ 1.4 µM).
In turn, `CC(=O)[C@H]1CC[C@H]2[C@@H]3CCC4=CC(=O)CC[C@]4(C)[C@H]3CC[C@]12C` [progesteron] showed a solubility (thermodynamic) at 120 h in series [2] (aqueous buffer, 0% γ-CD derivative (weight by volume)) of 5.9 µg/mL (≈ 18.8 µM).
In the case of `OC[C@H]1O[C@@H]2O[C@H]3[C@H](O)[C@@H](O)[C@@H](O[C@H]4[C@H](O)[C@@H](O)[C@@H](O[C@H]5[C@H](O)[C@@H](O)[C@@H](O[C@H]6[C@H](O)[C@@H](O)[C@@H](O[C@H]7[C@H](O)[C@@H](O)[C@@H](O[C@H]8[C@H](O)[C@@H](O)[C@@H](O[C@H]9[C@H](O)[C@@H](O)[C@@H](O[C@H]1[C@H](O)[C@H]2O)O[C@@H]9CO)O[C@@H]8CO)O[C@@H]7CO)O[C@@H]6CO)O[C@@H]5CO)O[C@@H]4CO)O[C@@H]3CO` [unsubstituted γ-CD, γ-cyclodextrin], the content of progesteron is 425 µg/mL in series [2] (0.5% γ-CD or derivative (weight by volume)); 343 µg/mL in series [2] (setting [4]); 275 µg/mL in series [2] (1.5% γ-CD or derivative (weight by volume)); 203 µg/mL in series [2] (2% γ-CD or derivative (weight by volume)); 163 µg/mL in series [2] (setting [5]); 93 µg/mL in series [2] (3% γ-CD or derivative (weight by volume)). In addition, the content of progesteron in series [2] (3.5% γ-CD or derivative (weight by volume)) amounted to 60 µg/mL; in series [2] (4% γ-CD or derivative (weight by volume)) it was 54 µg/mL; in series [2] (4.5% γ-CD or derivative (weight by volume)) it was 46 µg/mL; in series [2] (setting [6]), 45 µg/mL. For the same compound, the “content of 3-chloro-6-[3,6-dihydro-4-(3-methylphenyl)-1(2H)-pyridinyl]pyridazine” value in series [1] (setting [4]) was 2.0 µg/mL; in series [1] (setting [5]), 0.8 µg/mL; in series [1] (setting [6]), 0.8 µg/mL. The water solubility entry in series [3] is recorded as “excellent water solubility”.
